Assay results reported in publication PMC9865396, “The Effect of the Particle Size Reduction on the Biorelevant Solubility and Dissolution of Poorly Soluble Drugs with Different Acid-Base Character” (Pharmaceutics, 2023).
Structures can show the parent of a compound that is named as a salt.

Tests used:
[1] = particle size distribution by laser diffractometry (Mastersizer 2000); format: physicochemical
Experimental: For Laser Diffractometry, 0.1 mL of milled suspensions were dispersed in 100 mL of demineralized water at a mixing speed of 1500 rpm with Mastersizer Hydro 2000 SM small volume dispersion unit. The particle size of the samples was measured at 25 ± 1 °C using a Mastersizer 2000 (Malvern Instruments Ltd., Malvern, UK). Laser diffraction measures the angular distribution of light scattered by the diluted sample and detects particles from 0.1 to 3000 μm. General purpose measurement with enhanced sensitivity mode was utilized, which was also useful for sample characterizations containing irregularly shaped particles. Every sample was measured three times individually, and the mean values were reported to track the changing of the particle size and span values (width of particle size distributions).

[2] = pKa and ionization state (species distribution) at the pH of the media; format: physicochemical
[3] = ampholyte; cited from earlier work
[4] = equilibrium solubility by the saturation shake-flask (SSF) method in FaSSIF/FeSSIF blank and full media; conditions: blank buffers, 37 °C
Experimental: The equilibrium solubility of the samples was determined by the SSF method. The concentrations for the blank buffers were available at the manufacturer. FaSSIF full and FeSSIF full buffers were prepared from instant SIF powder added to the blank buffers and could be used for 48 h. For FaSSIF, a full 0.224 g of SIF powder was dissolved in 100 mL of blank phosphate buffer (pH = 6.5). After 2 h, a slightly opalesque solution was formed and it meant that it was ready for the measurement. For FeSSIF, a full 1.12 g of SIF powder was dissolved in 100 mL of blank acetate buffer (pH = 5.0) and was ready to use. The samples were added in excess to the aqueous buffer solutions to produce a suspension. To measure the original samples and the micronized forms in the presence of the excipients, the same 1 to 1 mass ratio was used as in the case of nanonized samples: a physical mixture was prepared from the API and the PVA or PVPK-25.
The prepared suspensions were vigorously stirred for 6 h at a controlled 37.0 ± 0.1 °C temperature followed by a sedimentation period of 18 h. […] The concentration of the saturated solutions was determined by UV spectroscopy using a Jasco V-550 UV/VIS spectrophotometer. The aliquots taken out from solubility experiments were diluted if necessary with the buffer used for the given solubility measurement, and the absorbance was measured at the λmax. […]

[5] = original and micronized compounds before solubility measurement, upper size limit for 10% of particles
[6] = original and micronized compounds before solubility measurement, upper size limit for 50% of particles
[7] = original and micronized compounds before solubility measurement, upper size limit for 90% of particles
[8] = solid phase at end of solubility measurement, pH = 5.0
[9] = solid phase at end of solubility measurement, pH = 6.5
[10] = pH = 5.0, calculated from protonation microconstants

Structure (SMILES) | d = 0.1 [1, 5] [µm] | d = 0.5 [1, 6] [µm] | d = 0.9 [1, 7] [µm] | d = 0.1 [1, 8] [µm] | d = 0.5 [1, 8] [µm] | d = 0.9 [1, 8] [µm] | d = 0.1 [1, 9] [µm] | d = 0.5 [1, 9] [µm] | d = 0.9 [1, 9] [µm] | H2A (non-ionized form) ([2]; pH = 5.0) [%] | HA− (monoanionic form) ([2]; pH = 5.0) [%] | anionic form [2, 10] [%] | neutral form [2, 10] [%] | zwitterionic form [2, 10] [%] | anionic form ([2]; pH = 6.5, calculated from protonation microconstants) [%] | pKa1 [3] | pKa2 [3] | solubility in pH = 5.0 medium compared with pH = 6.5 medium [4] | molecules protonated ([2]; pH = 5.0) [%] | molecule in deprotonated state ([2]; pH = 6.5)
NS(=O)(=O)c1cc(C(=O)O)c(NCc2ccco2)cc1Cl [FUR original, furosemide] | 7.36 | 62.46 | 294.13 | 16.24 | 51.23 | 110.56 | 4.72 | 14.63 | 35.04 | 3.3 | 96.7 |  |  |  |  |  |  |  |  | 
O=C(O)c1cccnc1Nc1cccc(C(F)(F)F)c1 [NIF original, Niflumic acid] | 71.45 | 183.25 | 579.83 | 56.21 | 151.25 | 488.95 | 19.07 | 58.55 | 128.24 |  |  | 78.2 | 1.2 | 20.6 | 99.1 | 2.26 | 4.44 | approximately ten times lower |  | 
COc1ccc(Cc2nccc3cc(OC)c(OC)cc23)cc1OC [PAP original, papaverine hydrochloride] | 153.97 | 488.62 | 887.93 | 4.60 | 49.42 | 189.96 | 7.96 | 33.39 | 98.40 |  |  |  |  |  |  |  |  |  | 95.8 | approximately 50%
